Data published in PMC8567988 (Frontiers in Microbiology, 2021).
Values joined by “and” are separate entries in the source; they are usually repeats but may differ in a detail not shown here. Equal entries are not always repeated. Where two headings read alike, the source gives them in different places.

How the values were obtained:
ASFV Ba71V strain [1] = test system: ASFV Ba71V strain
ASFV Ba71V strain [2] = assay: microbe, parasite or virus in culture; conditions: African swine fever virus, Vero, 72 h, read-out: inhibition of ASFV-induced CPE
in vitro = conditions: African green monkey
ASFV = assay type: cell-based, African swine fever virus
ASFV Ba71V strain [3] = assay: microbe, parasite or virus in culture; assay type: cell-based, African swine fever virus
ASFV Ba71V strain [4] = assay type: cell-based, African swine fever virus
ASFV Ba71V strain [5] = assay: microbe, parasite or virus in culture; assay type: cell-based, African swine fever virus; remark: listed apart in the source
ASFV Ba71V strain [6] = assay type: cell-based, African swine fever virus; remark: listed apart in the source
ASFV Ba71V [7] = assay type: cell-based, African swine fever virus
ASFV Ba71V [8] = assay type: cell-based, African swine fever virus; remark: listed apart in the source
ASFV Ba71V strain [9] = assay: microbe, parasite or virus in culture; assay type: cell-based, African swine fever virus; remark: listed apart in the source
ASFV Ba71V [10] = assay type: cell-based, African swine fever virus; remark: listed apart in the source
ASFV protein (pA104R) = assay type: cell-based, African swine fever virus
ASFV Ba71V [11] = assay type: cell-based, African swine fever virus; remark: listed apart in the source
ASFV Arm/07 isolate [12] = assay type: cell-based, African swine fever virus
ASFV Arm/07 isolate [13] = assay type: cell-based, African swine fever virus; remark: listed apart in the source
ASFV Arm/07 isolate [14] = assay type: cell-based, African swine fever virus; remark: listed apart in the source
ASFV Arm/07 isolate [15] = assay type: cell-based, African swine fever virus; remark: listed apart in the source
[16] = test system: autophagic vacuoles in Vero cells; assay type: cell-based, African green monkey
[17] = in vivo; cited from earlier work

COc1ccc(-c2coc3cc(O)ccc3c2=O)cc1O [calycosin]
cell monolayer damage upon treatment (ASFV Ba71V strain [1]): no apparent cell monolayer damage | inhibition at 20 µg/mL (ASFV Ba71V strain [2]): > 40%

COc1ccc(-c2cc(=O)c3c(O)cc(O[C@@H]4O[C@H](CO[C@@H]5O[C@@H](C)[C@H](O)[C@@H](O)[C@H]5O)[C@@H](O)[C@H](O)[C@H]4O)cc3o2)cc1O [diosmin]
cell monolayer damage upon treatment (ASFV Ba71V strain [1]): no apparent cell monolayer damage | CC50 (in vitro): 33.1 µg/mL and 54.4 µM | inhibition at 10 µg/mL (ASFV Ba71V strain [2]): > 40%

COc1ccc(-c2cc(=O)c3c(OC)c(OC)c(OC)cc3o2)cc1OC [sinensetin]
cell monolayer damage upon treatment (ASFV Ba71V strain [1]): no apparent cell monolayer damage | CC50 (in vitro): 150 µg/mL and 404 µM | inhibition at 20 µg/mL (ASFV Ba71V strain [2]): > 40%

Oc1c2ccccc2c2c3c(cccc13)N=N2 [SP600125, reference compound]
effect of the inhibitor alone on ASFV infection (ASFV): only a slight effect on ASFV infection

COc1ccc(-c2cc(=O)c3c(OC)cc(OC)c(OC)c3o2)cc1OC [isosinensetin]
cell monolayer damage upon treatment (ASFV Ba71V strain [1]): no apparent cell monolayer damage | CC50 (in vitro): 24.8 µg/mL and 66.6 µM | viability (in vitro): 58.5% | inhibition at 20 µg/mL (ASFV Ba71V strain [2]): > 40%

O=c1c(O)c(-c2ccc(O)cc2)oc2cc(O)cc(O)c12 [kaempferol, 3,5,7-trihydroxy-2-(4-hydroxyphenyl)-4H-chromen-4-one]
viral yield (ASFV Ba71V strain [3]): 3.98±0.19 log TCID50/ml | inhibition at 20 µg/mL (ASFV Ba71V strain [3]; African swine fever virus, Vero, 24 h, read-out: inhibition of ASFV infection): > 92% | virucidal effect (ASFV Ba71V strain [4]): no virucidal effects | antiviral effect, log decrease of ASFV titer (ASFV Ba71V strain [5]): 1.26 log | IC50 (ASFV Ba71V strain [5]; African swine fever virus, Vero): 2.2 µg/mL and 7.7 µM | inhibition, log decrease of ASFV titer (ASFV Ba71V strain [6]): 1.21 log | viral titers as the interval between infection and removal increased (ASFV Ba71V [7]): gradual declines in viral titers | inhibitory effect on ASFV infection (ASFV Ba71V [8]): no significant inhibitory effect | suppression of viral infection (ASFV Ba71V [8]): more than 90% | viral titer reduction (ASFV Ba71V [8]): 1.25 log and 1.1 log | inhibition of the ASFV yield (ASFV Ba71V strain [9]): more than 60% | viral titer, attachment experiment (ASFV Ba71V strain [9]): 3.97±0.25 log TCID50/ml | virus titer, internalization experiment (ASFV Ba71V strain [9]): 3.63±0.11 log TCID50/ml | inhibition at 20 µg/mL (ASFV Ba71V strain [9]; African swine fever virus, Vero, read-out: inhibition of the ASFV yield, attachment experiment): ~60% | plaque numbers (virus spread) (ASFV Ba71V [10]): significant reduction in plaque numbers in a dose-dependent manner | viral protein synthesis (late protein pA104R) (ASFV protein (pA104R)): viral protein synthesis was reduced | decrease of viral DNA in viral factories vs untreated control (ASFV Ba71V [11]): 31% | anti-ASFV activity (ASFV Arm/07 isolate [12]): Anti-ASFV activity was observed | viral titer (ASFV Arm/07 isolate [12]): 3.4±0.14 log HADU50/ml | inhibition, log decrease of titer (ASFV Arm/07 isolate [13]): about 2 log | effect on ASFV entry (ASFV Arm/07 isolate [14]): could hinder the ASFV attachment and internalization processes | decrease in the amount of viral DNA in ASFV factories (ASFV Arm/07 isolate [15]): 39% | formation of autophagic vacuoles [16]: induced the formation of autophagic vacuoles | antiviral activity in the presence of autophagy inhibitor SP600125 (ASFV): partially abrogated | cell monolayer damage upon treatment (ASFV Ba71V strain [1]): no apparent cell monolayer damage | cytotoxicity for porcine cells (porcine macrophages): not cytotoxic | human plasma concentration [17]: around 58 nm | inhibition at 20 µg/mL (ASFV Ba71V strain [2]): > 40%

O=c1cc(-c2ccccc2)oc2c1ccc1ccccc12 [7,8-benzoflavone]
ASFV yield after virucidal pre-incubation (ASFV Ba71V strain [4]): 4.64±0.09 log TCID50/ml | cell monolayer damage upon treatment (ASFV Ba71V strain [1]): no apparent cell monolayer damage | inhibition at 10 µg/mL (ASFV Ba71V strain [2]): > 40%

COc1cc(O)c2c(c1)O[C@H](c1ccc(O)cc1)CC2=O [sakuranetin]
cell monolayer damage upon treatment (ASFV Ba71V strain [1]): no apparent cell monolayer damage | inhibition at 20 µg/mL (ASFV Ba71V strain [2]): > 40%

Oc1ccc2c(c1)OC[C@H]1c3cc4c(cc3O[C@@H]21)OCO4 [maackiain]
cell monolayer damage upon treatment (ASFV Ba71V strain [1]): no apparent cell monolayer damage | inhibition at 20 µg/mL (ASFV Ba71V strain [2]): > 40%

COc1c2occc2c(OC)c2c(=O)cc(C)oc12 [khellin]
cell monolayer damage upon treatment (ASFV Ba71V strain [1]): no apparent cell monolayer damage | inhibition at 10 µg/mL (ASFV Ba71V strain [2]): > 40%
